Measurements reported in article PMC9029360, “Cyclooxygenase-Inhibiting Platinum(IV) Prodrugs with Potent Anticancer Activity” (Pharmaceutics, 2022).
Like-named read-outs stand apart in the source and are kept apart here.

Experiments:
SJ-G2 glioblastoma [1] = experiment: In vitro cytotoxicity MTT assay, SJ-G2 glioblastoma; assay type: cell-based; conditions: 72 h drug exposure, n = 3
human COX-2 [2] = target: T1, human COX-2 (Homo sapiens, UniProt P35354); experiment: biochemical; conditions: read-out: COX-2 inhibition
T1 sequence (P35354 18-604): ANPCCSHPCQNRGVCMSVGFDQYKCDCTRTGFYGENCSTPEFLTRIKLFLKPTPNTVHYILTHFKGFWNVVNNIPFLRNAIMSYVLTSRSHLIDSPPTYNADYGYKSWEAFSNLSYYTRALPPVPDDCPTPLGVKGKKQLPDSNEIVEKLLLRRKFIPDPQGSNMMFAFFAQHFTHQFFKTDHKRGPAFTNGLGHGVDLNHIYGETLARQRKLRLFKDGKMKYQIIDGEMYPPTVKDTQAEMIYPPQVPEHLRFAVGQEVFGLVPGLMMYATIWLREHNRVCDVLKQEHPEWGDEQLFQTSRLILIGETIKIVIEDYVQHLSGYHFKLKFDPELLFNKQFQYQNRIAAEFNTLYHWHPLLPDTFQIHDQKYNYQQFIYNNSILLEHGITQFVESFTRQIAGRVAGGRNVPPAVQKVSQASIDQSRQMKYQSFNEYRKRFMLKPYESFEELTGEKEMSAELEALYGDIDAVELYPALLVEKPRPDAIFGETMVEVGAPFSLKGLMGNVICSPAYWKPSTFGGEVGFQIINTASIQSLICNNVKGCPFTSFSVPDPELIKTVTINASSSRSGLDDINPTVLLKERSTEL
Description: (§1) The preparation of standards and samples and the completion of the assay were carried out following the manufacturer’s protocol. As described below, the completion of the assay required three main steps: the preparation of standards, the COX reaction and EIA.
(§2) The preparation of standards involved serial dilution of the prostaglandin (PG)-screening ELISA standard with ELISA buffer.
(§3) All tubes were incubated for 10 min at 37 °C. To initiate the reaction, arachidonic acid (10 µL) was added to each tube. This was incubated for 30 s at 37 °C before stannous chloride (30 µL) was added to stop enzyme catalysis. The tubes were removed from the water bath and vortexed, then incubated for five minutes at room temperature.
(§4) For EIA, ELISA buffer (100 µL) was added to non-specific binding (NSB) wells and ELISA buffer (50 µL) was added to maximum binding (B0) wells; 50 µL from each PG screening standard was added to the standard wells in duplicate. A background sample (50 µL) and COX 100% initial activity samples (50 µL) were added to the wells in duplicate. Each inhibitor sample (50 µL) was added to the wells in triplicate. PG screening acetylcholinesterase (AChE) tracer (50 µL) was added to all wells except for the total activity and blank wells. PG screening ELISA antiserum (50 µL) was added to each well except for the total activity, NSB and blank wells. The plate was covered with plastic film and incubated for 18 h at room temperature on an orbital shaker. The wells were emptied and rinsed with wash buffer five times. Ellman’s reagent (200 µL) was added to each well, followed by AChE tracer (5 µL) in the total activity well. The plate was covered with plastic film and left to develop in the dark using an orbital shaker at room temperature for one hour. The absorbance was recorded at 405 nm using a plate reader.

A2780 ovarian [3] = experiment: In vitro cytotoxicity MTT assay, A2780 ovarian; assay type: cell-based; conditions: Homo sapiens, 72 h drug exposure, n = 3
H460 lung [4] = experiment: In vitro cytotoxicity MTT assay, H460 lung; assay type: cell-based; conditions: Homo sapiens, NCI-H460, 72 h drug exposure, n = 3
MIA pancreas [5] = experiment: In vitro cytotoxicity MTT assay, MIA pancreas; assay type: cell-based; conditions: 72 h drug exposure, n = 3
MCF-7 breast [6] = experiment: In vitro cytotoxicity MTT assay, MCF-7 breast; assay type: cell-based; conditions: Homo sapiens, MCF7, 72 h drug exposure, n = 3
BE2-C neuroblastoma [7] = experiment: In vitro cytotoxicity MTT assay, BE2-C neuroblastoma; assay type: cell-based; conditions: Homo sapiens, BE(2)-C, 72 h drug exposure, n = 3
[8] = test system: Du145 prostate cancer cell line; experiment: In vitro cytotoxicity MTT assay, Du145 prostate; assay type: cell-based; conditions: Homo sapiens, DU-145, 72 h drug exposure, n = 3
U87 glioblastoma [9] = experiment: In vitro cytotoxicity MTT assay, U87 glioblastoma; assay type: cell-based; conditions: 72 h drug exposure, n = 3
[10] = test system: HT29 colon cancer cell line; experiment: In vitro cytotoxicity MTT assay, HT29 colon; assay type: cell-based; conditions: Homo sapiens, HT-29, 72 h drug exposure, n = 3
human COX-2 [11] = target: T1, human COX-2
Description: as §1, §2, §3, §4

[12] = test system: cisplatin-resistant ADDP ovarian (subclone of A2780 cell line); experiment: In vitro cytotoxicity MTT assay, cisplatin-resistant ADDP ovarian; assay type: cell-based
[13] = test system: MCF10A breast cell line (non-tumour derived); experiment: In vitro cytotoxicity MTT assay, non-tumour MCF10A breast; assay type: cell-based; conditions: Homo sapiens, MCF-10A, MCF10A (non-cancerous), 72 h drug exposure, n = 3
A431 skin [14] = experiment: In vitro cytotoxicity MTT assay, A431 skin; assay type: cell-based; conditions: Homo sapiens, A-431, 72 h drug exposure, n = 3
[15] = test system: cisplatin-resistant ADDP ovarian (subclone of A2780 cell line); conditions: MTT, 72 h, ref [2] Macias et al., Eur. J. Chem. 2015; cited from earlier work
BE2-C neuroblastoma [16] = conditions: MTT, 72 h, ref [2] Macias et al., Eur. J. Chem. 2015; cited from earlier work
A2780 ovarian [17] = conditions: MTT, 72 h, ref [2] Macias et al., Eur. J. Chem. 2015; cited from earlier work
MCF-7 breast [18] = conditions: MTT, 72 h, ref [2] Macias et al., Eur. J. Chem. 2015; cited from earlier work
ADDP cell line = experiment: Cellular platinum accumulation by ICP-MS, ADDP; assay type: cell-based
MIA pancreas [19] = conditions: MTT, 72 h, ref [2] Macias et al., Eur. J. Chem. 2015; cited from earlier work
A431 skin [20] = conditions: MTT, 72 h, ref [2] Macias et al., Eur. J. Chem. 2015; cited from earlier work
H460 lung [21] = conditions: MTT, 72 h, ref [2] Macias et al., Eur. J. Chem. 2015; cited from earlier work
[22] = test system: A2780 (ovarian) and ADDP (cisplatin-resistant ovarian) cancer cell lines; experiment: Cellular platinum accumulation by ICP-MS; assay type: cell-based; conditions: 4 h
[23] = test system: HT29 colon cancer cell line; conditions: MTT, 72 h, ref [2] Macias et al., Eur. J. Chem. 2015; cited from earlier work
[24] = test system: MCF10A breast cell line (non-tumour derived); conditions: MTT, 72 h, ref [2] Macias et al., Eur. J. Chem. 2015; cited from earlier work
U87 glioblastoma [25] = conditions: MTT, 72 h, ref [2] Macias et al., Eur. J. Chem. 2015; cited from earlier work
SJ-G2 glioblastoma [26] = conditions: MTT, 72 h, ref [2] Macias et al., Eur. J. Chem. 2015; cited from earlier work
[27] = test system: Du145 prostate cancer cell line; conditions: MTT, 72 h, ref [2] Macias et al., Eur. J. Chem. 2015; cited from earlier work

CC(=O)Oc1ccccc1C(=O)O [Aspirin, aspirin]
GI50 (SJ-G2 glioblastoma [1]): > 50 µM | inhibition at 700 µM (human COX-2 [2]): 19% | GI50 (A2780 ovarian [3]): > 50 µM | GI50 (H460 lung [4]): > 50 µM | GI50 (MIA pancreas [5]): > 50 µM | GI50 (MCF-7 breast [6]): > 50 µM | GI50 (BE2-C neuroblastoma [7]): > 50 µM | GI50 [8]: > 50 µM | GI50 (U87 glioblastoma [9]): > 50 µM | GI50 [10]: > 50 µM | COX-2 inhibition (human COX-2 [11]; at 7 µM): No inhibition | COX-2 inhibition (human COX-2 [11]; at 70 µM): No inhibition | GI50 ([12]; Homo sapiens, A2780, ADDP (cisplatin-resistant), MTT, 72 h drug exposure, n = 3): > 50 µM | GI50 [13]: > 50 µM | GI50 (A431 skin [14]): > 50 µM

N.N.[Cl][Pt][Cl] [Cisplatin, cisplatin]
GI50 [15]: 28 µM | GI50 (BE2-C neuroblastoma [16]): 1.9 ± 0.2 µM | GI50 (A2780 ovarian [17]): 1 ± 0.1 µM | GI50 (MCF-7 breast [18]): 6.5 ± 0.8 µM | uptake level, fold lower than PHENSS(IV) (ADDP cell line): ~ two-fold | GI50 (MIA pancreas [19]): 7.5 µM | GI50 (A431 skin [20]): 2.4 ± 0.3 µM | GI50 (H460 lung [21]): 0.9 ± 0.2 µM | cellular platinum uptake (rank in words) [22]: lowest uptake | GI50 [23]: 11.3 µM | GI50 [24]: 5.2 µM | GI50 (U87 glioblastoma [25]): 3.8 µM | GI50 (SJ-G2 glioblastoma [26]): 0.4 µM | fold less active than PHENSS(IV) (GI50 values) ([12]; ADDP cell line): ~ 22 fold | fold decrease in activity in the cisplatin-resistant ADDP cell line compared to the A2780 cell line ([12]; ratio of GI50 values ADDP vs A2780): 28 fold | GI50 [27]: 1.2 ± 0.1 µM
